Reference: US20100203043A1, “TREATMENT AND DIAGNOSIS OF METASTATIC PROSTATE CANCER WITH INHIBITORS OF EPIDERMAL GROWTH FACTOR RECEPTOR (EGFR)” (priority 2007, published 2010)

Test system: LNCaP cells
Test: Kinase activity profiling (PamChip peptide arrays) of LNCaP cells treated with synthetic androgen analog
Type: cell-based, human
Design: key to ZAP70_y492/y493 phosphopeptide fold change (log2) relative to LNCaP baseline / RASA_y460 phosphopeptide fold change (log2) relative to LNCaP baseline / RET_y1029 phosphopeptide fold change (log2) relative to LNCaP baseline / IRS2_y919 phosphopeptide fold change (log2) relative to LNCaP baseline / JAK1_y1022/y1023 phosphopeptide fold change (log2) relative to LNCaP baseline / LCK_y394 phosphopeptide fold change (log2) relative to LNCaP baseline / MET_y1230/y1234/y1235 phosphopeptide fold change (log2) relative to LNCaP baseline / PDPK1_y9 phosphopeptide fold change (log2) relative to LNCaP baseline / PDPK1_y373/y376 phosphopeptide fold change (log2) relative to LNCaP baseline / EPHB1_y778 phosphopeptide fold change (log2) relative to LNCaP baseline / ERBB2_y877 phosphopeptide fold change (log2) relative to LNCaP baseline / ERBB2_y1248 phosphopeptide fold change (log2) relative to LNCaP baseline / CDK2_t14/y_5 phosphopeptide fold change (log2) relative to LNCaP baseline / DDRl_y792/y796/y797 phosphopeptide fold change (log2) relative to LNCaP baseline / MAPK10 phosphopeptide fold change (log2) relative to LNCaP baseline / MAPK12_t183/y185 phosphopeptide fold change (log2) relative to LNCaP baseline / PECAM1_y713 phosphopeptide fold change (log2) relative to LNCaP baseline / PRRX2_y214 phosphopeptide fold change (log2) relative to LNCaP baseline / ANXA1_y20/t23 phosphopeptide fold change (log2) relative to LNCaP baseline / CD79A_y182/y188 phosphopeptide fold change (log2) relative to LNCaP baseline / CTTN1_y477/y483 phosphopeptide fold change (log2) relative to LNCaP baseline / CTTN1_y499 phosphopeptide fold change (log2) relative to LNCaP baseline / ENO2_y43 phosphopeptide fold change (log2) relative to LNCaP baseline / EPHA2_y772 phosphopeptide fold change (log2) relative to LNCaP baseline / EPHA7_y608/y614 phosphopeptide fold change (log2) relative to LNCaP baseline / EPOR_y368 phosphopeptide fold change (log2) relative to LNCaP baseline / EPOR_y426 phosphopeptide fold change (log2) relative to LNCaP baseline / FER_y714 phosphopeptide fold change (log2) relative to LNCaP baseline / FES_y713 phosphopeptide fold change (log2) relative to LNCaP baseline / FGFR2_y769 phosphopeptide fold change (log2) relative to LNCaP baseline / FGFR3_y760 phosphopeptide fold change (log2) relative to LNCaP baseline / FRK_y387 phosphopeptide fold change (log2) relative to LNCaP baseline / LAT_y255 phosphopeptide fold change (log2) relative to LNCaP baseline / EGFR_y1110 phosphopeptide fold change (log2) relative to LNCaP baseline / NTRK2_y702/y706/y707 phosphopeptide fold change (log2) relative to LNCaP baseline / PDGFRB_y579/y581 phosphopeptide fold change (log2) relative to LNCaP baseline / PDGFRB_y716 phosphopeptide fold change (log2) relative to LNCaP baseline / PIK3R1_y607/s608 phosphopeptide fold change (log2) relative to LNCaP baseline / PXN_y31 phosphopeptide fold change (log2) relative to LNCaP baseline / PXN_y118 phosphopeptide fold change (log2) relative to LNCaP baseline / TEC_y519 phosphopeptide fold change (log2) relative to LNCaP baseline / MST1R_y1353 phosphopeptide fold change (log2) relative to LNCaP baseline / MST1R_y1356/y1360 phosphopeptide fold change (log2) relative to LNCaP baseline / FAK_y576/y577 phosphopeptide fold change (log2) relative to LNCaP baseline / FAK2_y579/y580 phosphopeptide fold change (log2) relative to LNCaP baseline / LAT_y200 phosphopeptide fold change (log2) relative to LNCaP baseline: —: ‘-’ denotes that the change in peptide phosphorylation level was not found to be significant
Settings: ‘androgenic’: LNCaP cells, 100 nM R1881, 48 h
Method: Cell culture conditions. The LNCaP and OHS cell lines were routinely held in RPMI 1640 medium supplemented with 10% fetal bovine serum (FBS) and 2.0 mM glutamine, defined as growth medium. Different ratios of LNCaP cells to OHS cells had been tested in a series of cocultures to find the optimal culturing conditions [Bratland et al., 2003]. Seventy-two hours before start of experimental incubations, LNCaP and OHS cells were seeded in a 10:1 ratio in RPMI containing 2% charcoal-treated FBS and glutamine. After 48 h, this medium was changed to RPMI containing 0.5% charcoal-treated FBS and glutamine, defined as experimental medium, for another 24 h before experimental incubations were started (at time 0). Monocultures of LNCaP cells were identically incubated prior to experimental incubations.
Monocultures of LNCaP, as well as LNCaP/OHS cocultures, were seeded in a total number of 1.0×10^6 cells in 75 cm2 cell flasks and invariably held in 10 ml medium throughout different incubations. At time 0 (start of the experimental incubations), monocultured LNCaP cells were refed with experimental medium supplemented with 100 nM R1881 (methyltrienolone; Life Science Products), a synthetic androgen analog, or with medium conditioned by OHS cells. The conditioned medium had been collected from OHS monocultures that had been seeded in a 10-fold higher number per volume medium compared to the corresponding cell number of the LNCaP/OHS cocultures, and grown for 48 h (relative to time 0) in experimental medium. This medium was subsequently diluted 1:10 in either fresh experimental medium or in medium obtained from standard LNCaP monocultures after 48 h of incubation (relative to time 0) in experimental medium, before the application onto monocultured LNCaP cells.
To be able to analyze LNCaP signaling pathways activated by direct contact with OHS cells, LNCaP cells were isolated from cocultures by immunomagnetic selection [Forus et al., 1999, Fodstad et al., 2001, Bruland et al., 2005, Tveito et al., 2007]. This rapid and simple procedure enables specific selection of target cells for further analytical applications. Subsequent multiplex profiling of kinase activity was performed using flow-through, porous microarrays with peptide substrates (PamChip® peptide arrays; PamGene International B.V., www.pamgene.com), a novel platform that allows rapid, real-time measurements of phosphopeptide signatures generated by the biological samples.
Androgens are critical regulators of prostate carcinoma progression. Most patients respond to androgen ablation therapy, but only temporarily, also at bone metastasis sites. Until recently, the regulatory program mediated by the androgen receptor in prostate cancer has been elusive [Dehm & Tindall, 2006]. To simulate the complex processes involved in aberrant activation of the androgen signaling axis upon disease progression of prostate cancer [Feldman & Feldman, 2001, Attard et al., 2006], our experimental setting included LNCaP cells treated with a synthetic androgen analog (R1881, 100 nM) to observe whether androgen receptor-mediated signaling pathways might be different from those activated by OHS-directed influence.
The LNCaP samples were given denotations in accordance with their biological context: ‘direct’ (cells from LNCaP/OHS cocultures), ‘paracrine 1’ (cells treated with OHS-conditioned medium mixed with fresh medium), ‘paracrine 2’ (cells treated with OHS-conditioned medium mixed with medium conditioned by LNCaP cells), and ‘androgenic’ (cells treated with the synthetic androgen analog), in addition to baseline (untreated reference cells).
To identify regulatory mechanisms underlying the affinity of prostate cancer to bone, the substrate phosphorylation state generated by each LNCaP entity (‘direct’, ‘paracrine’, ‘androgenic’) was calculated with respect to baseline. […]

`C[C@]1(O)CC[C@H]2[C@@H]3CCC4=CC(=O)CCC4=C3C=C[C@@]21C` [R1881, methyltrienolone] was tested, and the “ANXA1_y20/t23 phosphopeptide fold change (log2) relative to LNCaP baseline” value was “—”, the “CD79A_y182/y188 phosphopeptide fold change (log2) relative to LNCaP baseline” value was “—” and the “CDK2_t14/y_5 phosphopeptide fold change (log2) relative to LNCaP baseline” value was “—”. For the same compound, the “CHRNB1_y390 phosphopeptide fold change (log2) relative to LNCaP baseline” value was 1.57 fold change (log2), the “CREBl_y134/s133 phosphopeptide fold change (log2) relative to LNCaP baseline” value was 1.47 fold change (log2) and the “CTTN1_y477/y483 phosphopeptide fold change (log2) relative to LNCaP baseline” value was “—”. The “CTTN1_y499 phosphopeptide fold change (log2) relative to LNCaP baseline” value was “—”, the “DDRl_y792/y796/y797 phosphopeptide fold change (log2) relative to LNCaP baseline” value was “—” and the “EGFR_y1110 phosphopeptide fold change (log2) relative to LNCaP baseline” value was “—”. For the same compound, the “EGFR_y1197 phosphopeptide fold change (log2) relative to LNCaP baseline” value was 1.94 fold change (log2), the “ENO2_y43 phosphopeptide fold change (log2) relative to LNCaP baseline” value was “—” and the “EPHA2_y772 phosphopeptide fold change (log2) relative to LNCaP baseline” value was “—”. The “EPHA7_y608/y614 phosphopeptide fold change (log2) relative to LNCaP baseline” value was “—”, the “EPHB1_y778 phosphopeptide fold change (log2) relative to LNCaP baseline” value was “—” and the “EPOR_y368 phosphopeptide fold change (log2) relative to LNCaP baseline” value was “—”. For the same compound, the “EPOR_y426 phosphopeptide fold change (log2) relative to LNCaP baseline” value was “—”, the “ERBB2_y877 phosphopeptide fold change (log2) relative to LNCaP baseline” value was “—” and the “ERBB2_y1248 phosphopeptide fold change (log2) relative to LNCaP baseline” value was “—”. For the same compound, the “ERBB4_y1284 phosphopeptide fold change (log2) relative to LNCaP baseline” value was 3.31 fold change (log2), the “FAK2_y579/y580 phosphopeptide fold change (log2) relative to LNCaP baseline” value was “—” and the “FAK_y576/y577 phosphopeptide fold change (log2) relative to LNCaP baseline” value was “—”. The “FER_y714 phosphopeptide fold change (log2) relative to LNCaP baseline” value was “—”, the “FES_y713 phosphopeptide fold change (log2) relative to LNCaP baseline” value was “—” and the “FGFR2_y769 phosphopeptide fold change (log2) relative to LNCaP baseline” value was “—”. The “FGFR3_y760 phosphopeptide fold change (log2) relative to LNCaP baseline” value was “—”, the “FRK_y387 phosphopeptide fold change (log2) relative to LNCaP baseline” value was “—” and the “GSK3B_y216 phosphopeptide fold change (log2) relative to LNCaP baseline” value was 1.15 fold change (log2). The “IRS2_y919 phosphopeptide fold change (log2) relative to LNCaP baseline” value was “—”, the “JAK1_y1022/y1023 phosphopeptide fold change (log2) relative to LNCaP baseline” value was “—” and the “LAT_y200 phosphopeptide fold change (log2) relative to LNCaP baseline” value was “—”. For the same compound, the “LAT_y255 phosphopeptide fold change (log2) relative to LNCaP baseline” value was “—”, the “LCK_y394 phosphopeptide fold change (log2) relative to LNCaP baseline” value was “—” and the “LTK_y772/y776/y777 phosphopeptide fold change (log2) relative to LNCaP baseline” value was 1.20 fold change (log2). For the same compound, the “MAPK10 phosphopeptide fold change (log2) relative to LNCaP baseline” value was “—”, the “MAPK12_t183/y185 phosphopeptide fold change (log2) relative to LNCaP baseline” value was “—” and the “MET_y1230/y1234/y1235 phosphopeptide fold change (log2) relative to LNCaP baseline” value was “—”. For the same compound, the “MST1R_y1353 phosphopeptide fold change (log2) relative to LNCaP baseline” value was “—”, the “MST1R_y1356/y1360 phosphopeptide fold change (log2) relative to LNCaP baseline” value was “—” and the “NTRK2_y702/y706/y707 phosphopeptide fold change (log2) relative to LNCaP baseline” value was “—”. For the same compound, the “PDGFRB_y579/y581 phosphopeptide fold change (log2) relative to LNCaP baseline” value was “—”, the “PDGFRB_y716 phosphopeptide fold change (log2) relative to LNCaP baseline” value was “—” and the “PDPK1_y9 phosphopeptide fold change (log2) relative to LNCaP baseline” value was “—”. For the same compound, the “PDPK1_y373/y376 phosphopeptide fold change (log2) relative to LNCaP baseline” value was “—”, the “PECAM1_y713 phosphopeptide fold change (log2) relative to LNCaP baseline” value was “—” and the “PFKFB1_s33 phosphopeptide fold change (log2) relative to LNCaP baseline” value was 1.36 fold change (log2). For the same compound, the “PIK3R1_y607/s608 phosphopeptide fold change (log2) relative to LNCaP baseline” value was “—”, the “PRRX2_y214 phosphopeptide fold change (log2) relative to LNCaP baseline” value was “—” and the “PTPN11_y542 phosphopeptide fold change (log2) relative to LNCaP baseline” value was 2.94 fold change (log2). The “PXN_y31 phosphopeptide fold change (log2) relative to LNCaP baseline” value was “—”, the “PXN_y118 phosphopeptide fold change (log2) relative to LNCaP baseline” value was “—” and the “RAF1_s337/s338/y339/y340 phosphopeptide fold change (log2) relative to LNCaP baseline” value was 1.14 fold change (log2). The “RASA_y460 phosphopeptide fold change (log2) relative to LNCaP baseline” value was “—”, the “RB1_s807/s811 phosphopeptide fold change (log2) relative to LNCaP baseline” value was 3.07 fold change (log2) and the “RET_y1029 phosphopeptide fold change (log2) relative to LNCaP baseline” value was “—”. For the same compound, the “SYN1_s9 phosphopeptide fold change (log2) relative to LNCaP baseline” value was 1.20 fold change (log2), the “TEC_y519 phosphopeptide fold change (log2) relative to LNCaP baseline” value was “—” and the “ZAP70_y492/y493 phosphopeptide fold change (log2) relative to LNCaP baseline” value was “—”.
